Data from patent US11000033B2, “Ketone or oxime compound, and herbicide” (NISSAN CHEMICAL CORPORATION, priority 2014, dated 2021).

How the values were obtained:
Type in all cases: in vivo
[1] = test system: Amaranthus retroflexus; assay: Test Example 4: herbicidal effect by soil treatment (symbol N)
Outline: (§1)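 Seeds were sown in sterilized diluvial soil, covered with about 1.5 cm of soil, and the soil surface was sprayed with a water-diluted emulsion of the compound at a predetermined rate. Plants grew in a greenhouse at 25° C. to 30° C.; effects were scored visually 3 weeks after application.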

[2] = test system: corn; assay: Test Example 4: effect on crop by soil treatment (symbol c); conditions: for c: corn, effect grade on crop: 320 g/ha
Outline: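 The test used sterilized diluvial soil. Seed was set down in spots and overlaid with about 1.5 cm of soil before growth in a greenhouse kept at 25° C. to 30° C.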

[3] = test system: Avena fatua; assay: Test Example 5: herbicidal effect by foliage application, plastic box (symbol I); conditions: 3 weeks after application
Outline: (§2)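 Sowing in sterilized diluvial soil, 14 days' greenhouse growth at 25° C. to 30° C., then uniform small-sprayer foliar application of aqueous emulsion dilution; plants scored three weeks afterwards.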

[4] = test system: Abutilon theophrasti; assay: Test Example 5: herbicidal effect by foliage application, plastic box (symbol M); conditions: 3 weeks after application
Outline: as §2

[5] = test system: Echinochloa oryzacola Vasing.; assay: Test Example 1: herbicidal activity, application before weed generation in submerged conditions (symbol A)
Outline: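 Ratings (5: ≥90%, near complete withering; 4: 70–<90%; 3: 40–<70%; 2: 20–<40%; 1: 5–<20%; 0: ≤5%) were assigned 3 weeks after the diluted emulsion was applied to the water surface of freshly sown, submerged pots.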

[6] = test system: Veronica persica; assay: Test Example 5: herbicidal effect by foliage application, plastic box (symbol R); conditions: 3 weeks after application
Outline: as §2

[7] = test system: Galium spurium; assay: Test Example 5: herbicidal effect by foliage application, plastic box (symbol Q); conditions: 3 weeks after application
Outline: as §2

[8] = test system: rapeseed; assay: Test Example 4: effect on crop by soil treatment (symbol g); conditions: for g: rapeseed, effect grade on crop: 320 g/ha
Outline: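 Seeds were sown in spots on sterilized diluvial soil in a plastic box and covered with about 1.5 cm of soil. Plants were then grown in a greenhouse at 25° C. to 30° C.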

[9] = test system: Scirpus juncoides; assay: Test Example 2: herbicidal activity, application during weed generation in submerged conditions (symbol B); conditions: Table 23, grade 0-5 by criteria of Test Example 1
Outline: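 Scoring of herbicidal effect took place 3 weeks after treatment, using the criteria of the earlier test. Treatment was water-surface application of diluted emulsifiable compound at a set dose. Plants were at one- to two-leaf stage in submerged alluvial soil (4 cm depth), greenhouse 25-30° C.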

[10] = test system: Lolium multiflorum Lam.; assay: Test Example 5: herbicidal effect by foliage application, plastic box (symbol K); conditions: 3 weeks after application
Outline: as §2

[11] = test system: Stellaria media; assay: Test Example 5: herbicidal effect by foliage application, plastic box (symbol P); conditions: 3 weeks after application
Outline: as §2

[12] = test system: Cyperus difformis; assay: Test Example 3: herbicidal effect by foliage application, Wagner pot (symbol E); conditions: for E herbicidal effect grade: Table 24
Outline: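 Foliar spray of a water-diluted emulsion at a predetermined herbicide amount, applied to 14-day-old plants. Seedlings were raised in flooded alluvial soil (0.1–0.5 cm water) at 25–30 °C in a greenhouse. Injury was rated after 3 weeks against fixed criteria.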

[13] = test system: Galium spurium; assay: Test Example 4: herbicidal effect by soil treatment (symbol Q)
Outline: as §1

[14] = test system: Amaranthus retroflexus; assay: Test Example 5: herbicidal effect by foliage application, plastic box (symbol N); conditions: 3 weeks after application
Outline: as §2

[15] = test system: Echinochloa crus-galli var. crus-galli; assay: Test Example 4: herbicidal effect by soil treatment (symbol H)
Outline: as §1

[16] = test system: Apera spica-venti; assay: Test Example 5: herbicidal effect by foliage application, plastic box (symbol L); conditions: 3 weeks after application
Outline: as §2

[17] = application herbicide amount 320 g/ha
[18] = application herbicide amount 269 g/ha

| SMILES | N: Amaranthus retroflexus, herbicidal effect grade [1, 17] | c: corn, effect on crop grade [2, 17] | I: Avena fatua, herbicidal effect grade ([3]; 320 g/ha) | M: Abutilon theophrasti, herbicidal effect grade ([4]; 320 g/ha) | A (Echinochloa oryzacola Vasing.) herbicidal effect grade [5, 17] | R: Veronica persica, herbicidal effect grade ([6]; 320 g/ha) | Q: Galium spurium, herbicidal effect grade ([7]; 320 g/ha) | g: rapeseed, effect on crop grade [8, 17] | Herbicidal effect grade, B: Scirpus juncoides [9, 17] | K: Lolium multiflorum Lam., herbicidal effect grade ([10]; 320 g/ha) | P: Stellaria media, herbicidal effect grade ([11]; 320 g/ha) | E herbicidal effect grade [12, 17] | Q: Galium spurium, herbicidal effect grade [13, 17] | N: Amaranthus retroflexus, herbicidal effect grade ([14]; 320 g/ha) | H: Echinochloa crus-galli var. crus-galli, herbicidal effect grade [15, 17] | L: Apera spica-venti, herbicidal effect grade ([16]; 320 g/ha) | N: Amaranthus retroflexus, herbicidal effect grade ([1]; 320 g/ha) | c: corn, effect grade on crop [2] | I: Avena fatua, herbicidal effect (criteria 0-5) ([3]; 320 g/ha) | M: Abutilon theophrasti, herbicidal effect (criteria 0-5) ([4]; 320 g/ha) | also measured |
| --- | --- | --- | --- | --- | --- | --- | --- | --- | --- | --- | --- | --- | --- | --- | --- | --- | --- | --- | --- | --- | --- |
| CCC(CC1CC(O)=C(c2c(C)cc(-c3ccccc3)cc2OC)C1=O)=NOC (mixture of isomers) [13-004] | 4 (Herbicidal ratio of 70% or higher and lower than 90%) | 5 (Herbicidal ratio of 90% or more (almost completely withered)) | 5 (Herbicidal ratio of 90% or more (almost completely withered)) | 1 (Herbicidal ratio of 5% or higher and lower than 20%) | 5 (Herbicidal ratio of 90% or more (almost completely withered)) | 3 (Herbicidal ratio of 40% or higher and lower than 70%) | 4 (Herbicidal ratio of 70% or higher and lower than 90%) | 4 (Herbicidal ratio of 70% or higher and lower than 90%) | 5 (Herbicidal ratio of 90% or more (almost completely withered)) | 5 (Herbicidal ratio of 90% or more (almost completely withered)) | 2 (Herbicidal ratio of 20% or higher and lower than 40%) | 5 (Herbicidal ratio of 90% or more (almost completely withered)) | 0 (Herbicidal ratio of 5% or lower (almost no effect)) | 0 (Herbicidal ratio of 5% or lower (almost no effect)) | 5 (Herbicidal ratio of 90% or more (almost completely withered)) | 5 (Herbicidal ratio of 90% or more (almost completely withered)) |  |  |  |  |  |
| COc1ccc(CON=C(C)CC2CC(O)=C(c3c(C)cc(C)cc3C)C2=O)cc1 (centres unmarked) [1-112] |  |  |  |  |  |  |  |  | 4 (Herbicidal ratio of 70% or higher and lower than 90%) |  |  |  |  |  |  |  | 0 (Herbicidal ratio of 5% or lower (almost no effect)) | 1 (Herbicidal ratio of 5% or higher and lower than 20%) | 5 (Herbicidal ratio of 90% or more (almost completely withered)) | 1 (Herbicidal ratio of 5% or higher and lower than 20%) | Herbicidal effect grade, A: Echinochloa oryzacola Vasing. [5, 17]: 5 (Herbicidal ratio of 90% or more (almost completely withered)); R: Veronica persica, herbicidal effect (criteria 0-5) ([6]; 320 g/ha): 3 (Herbicidal ratio of 40% or higher and lower than 70%); Q: Galium spurium, herbicidal effect (criteria 0-5) ([7]; 320 g/ha): 3 (Herbicidal ratio of 40% or higher and lower than 70%); g: rapeseed, effect grade on crop [8]: 0 (Herbicidal ratio of 5% or lower (almost no effect)); K: Lolium multiflorum Lam., herbicidal effect (criteria 0-5) ([10]; 320 g/ha): 5 (Herbicidal ratio of 90% or more (almost completely withered)); P: Stellaria media, herbicidal effect (criteria 0-5) ([11]; 320 g/ha): 1 (Herbicidal ratio of 5% or higher and lower than 20%); herbicidal effect on E, grade 0-5 [12, 17]: 5 (Herbicidal ratio of 90% or more (almost completely withered)); Q: Galium spurium, herbicidal effect grade ([13]; 320 g/ha): 0 (Herbicidal ratio of 5% or lower (almost no effect)); N: Amaranthus retroflexus, herbicidal effect (criteria 0-5) ([14]; 320 g/ha): 0 (Herbicidal ratio of 5% or lower (almost no effect)); H: Echinochloa crus-galli var. crus-galli, herbicidal effect grade ([15]; 320 g/ha): 4 (Herbicidal ratio of 70% or higher and lower than 90%); L: Apera spica-venti, herbicidal effect (criteria 0-5) ([16]; 320 g/ha): 5 (Herbicidal ratio of 90% or more (almost completely withered)) |
| CCC(CC1CC(O)=C(c2c(C)cc(Br)cc2OC)C1=O)=NOC (mixture of isomers) [13-001] | 0 (Herbicidal ratio of 5% or lower (almost no effect)) | 5 (Herbicidal ratio of 90% or more (almost completely withered)) | 5 (Herbicidal ratio of 90% or more (almost completely withered)) | 1 (Herbicidal ratio of 5% or higher and lower than 20%) | 5 (Herbicidal ratio of 90% or more (almost completely withered)) | 0 (Herbicidal ratio of 5% or lower (almost no effect)) | 0 (Herbicidal ratio of 5% or lower (almost no effect)) | 0 (Herbicidal ratio of 5% or lower (almost no effect)) | 0 (Herbicidal ratio of 5% or lower (almost no effect)) | 5 (Herbicidal ratio of 90% or more (almost completely withered)) | 0 (Herbicidal ratio of 5% or lower (almost no effect)) | 4 (Herbicidal ratio of 70% or higher and lower than 90%) | 0 (Herbicidal ratio of 5% or lower (almost no effect)) | 0 (Herbicidal ratio of 5% or lower (almost no effect)) | 5 (Herbicidal ratio of 90% or more (almost completely withered)) | 5 (Herbicidal ratio of 90% or more (almost completely withered)) |  |  |  |  |  |
| CC(=O)C(C)C1CC(O)=C(c2c(C)cc(C)cc2C)C1=O (centres unmarked) [2-005] |  |  |  |  |  |  |  |  |  |  |  |  |  |  |  |  |  |  |  |  | N: Amaranthus retroflexus, herbicidal effect grade [1, 18]: 0 (Herbicidal ratio of 5% or lower (almost no effect)); c: corn, effect on crop grade [2, 18]: 0 (Herbicidal ratio of 5% or lower (almost no effect)); I: Avena fatua, herbicidal effect grade ([3]; 269 g/ha): 3 (Herbicidal ratio of 40% or higher and lower than 70%); M: Abutilon theophrasti, herbicidal effect grade ([4]; 269 g/ha): 0 (Herbicidal ratio of 5% or lower (almost no effect)); Herbicidal effect grade, A: Echinochloa oryzacola Vasing. [5, 18]: 3 (Herbicidal ratio of 40% or higher and lower than 70%); R: Veronica persica, herbicidal effect grade ([6]; 269 g/ha): 0 (Herbicidal ratio of 5% or lower (almost no effect)); Q: Galium spurium, herbicidal effect grade ([7]; 269 g/ha): 0 (Herbicidal ratio of 5% or lower (almost no effect)); g: rapeseed, effect on crop grade [8, 18]: 4 (Herbicidal ratio of 70% or higher and lower than 90%); Herbicidal effect grade, B: Scirpus juncoides [9, 18]: 0 (Herbicidal ratio of 5% or lower (almost no effect)); K: Lolium multiflorum Lam., herbicidal effect grade ([10]; 269 g/ha): 5 (Herbicidal ratio of 90% or more (almost completely withered)); P: Stellaria media, herbicidal effect grade ([11]; 269 g/ha): 0 (Herbicidal ratio of 5% or lower (almost no effect)); herbicidal effect on E, grade 0-5 [12, 18]: 4 (Herbicidal ratio of 70% or higher and lower than 90%); Q: Galium spurium, herbicidal effect grade [13, 18]: 0 (Herbicidal ratio of 5% or lower (almost no effect)); N: Amaranthus retroflexus, herbicidal effect grade ([14]; 269 g/ha): 0 (Herbicidal ratio of 5% or lower (almost no effect)); H: Echinochloa crus-galli var. crus-galli, herbicidal effect grade [15, 18]: 5 (Herbicidal ratio of 90% or more (almost completely withered)); L: Apera spica-venti, herbicidal effect grade ([16]; 269 g/ha): 3 (Herbicidal ratio of 40% or higher and lower than 70%) |
| CON=C(C)CC1CC(OS(=O)(=O)N(C)C)=C(c2c(C)cc(C)cc2C)C1=O (centres unmarked) [1-122] |  |  |  |  |  |  |  |  | 5 (Herbicidal ratio of 90% or more (almost completely withered)) |  |  |  |  |  |  |  | 0 (Herbicidal ratio of 5% or lower (almost no effect)) | 2 (Herbicidal ratio of 20% or higher and lower than 40%) | 5 (Herbicidal ratio of 90% or more (almost completely withered)) | 4 (Herbicidal ratio of 70% or higher and lower than 90%) | Herbicidal effect grade, A: Echinochloa oryzacola Vasing. [5, 17]: 5 (Herbicidal ratio of 90% or more (almost completely withered)); R: Veronica persica, herbicidal effect (criteria 0-5) ([6]; 320 g/ha): 0 (Herbicidal ratio of 5% or lower (almost no effect)); Q: Galium spurium, herbicidal effect (criteria 0-5) ([7]; 320 g/ha): 0 (Herbicidal ratio of 5% or lower (almost no effect)); g: rapeseed, effect grade on crop [8]: 0 (Herbicidal ratio of 5% or lower (almost no effect)); K: Lolium multiflorum Lam., herbicidal effect (criteria 0-5) ([10]; 320 g/ha): 5 (Herbicidal ratio of 90% or more (almost completely withered)); P: Stellaria media, herbicidal effect (criteria 0-5) ([11]; 320 g/ha): 1 (Herbicidal ratio of 5% or higher and lower than 20%); herbicidal effect on E, grade 0-5 [12, 17]: 5 (Herbicidal ratio of 90% or more (almost completely withered)); Q: Galium spurium, herbicidal effect grade ([13]; 320 g/ha): 0 (Herbicidal ratio of 5% or lower (almost no effect)); N: Amaranthus retroflexus, herbicidal effect (criteria 0-5) ([14]; 320 g/ha): 1 (Herbicidal ratio of 5% or higher and lower than 20%); H: Echinochloa crus-galli var. crus-galli, herbicidal effect grade ([15]; 320 g/ha): 4 (Herbicidal ratio of 70% or higher and lower than 90%); L: Apera spica-venti, herbicidal effect (criteria 0-5) ([16]; 320 g/ha): 5 (Herbicidal ratio of 90% or more (almost completely withered)) |
